Values joined by “and” are separate entries in the source; they are usually repeats but may differ in a detail not shown here. Equal values may be shown once. Read-outs that look alike come from different tables or passages of the source.

One may read the AUC(0-inf) as total exposure, with the tail of the curve extrapolated.

The nature of series [1]: Clinical study NG100-101: plasma pharmacokinetics of metopimazine and metabolites after a single oral 60 mg dose. The settings on record: for % Drug‐related material MPZ / % Drug‐related material MPZA: based on AUClast; for % Drug‐related material MPZ / percent of total circulating drug‐related material / % Drug‐related material MPZA: single 60 mg dose; for Tmax / AUC(0-t) / Cmax: both sexes, human, po, 60 mg; for percent of total circulating drug‐related material: rough estimate based on AUClast. The series is classed as in vivo, healthy adult subjects (human). As for the experimental part: The clinical study was conducted at Biotrial Rennes, in accordance with the Declaration of Helsinki. The study (NG100‐101) was a double‐blind, placebo‐ controlled, ascending single‐ and multiple‐dose study of the safety, tolerability, and pharmacokinetics of metopimazine administered orally to healthy adult subjects. The study protocol, informed consent form, and appropriate related documents were approved by the institutional review board, and all subjects provided written informed consent prior to participation in the study. […] In the morning, after at least 10 h of fasting overnight, eight healthy adult subjects (male or female aged 18 to 45), were orally administered metopimazine (or a matching placebo). […] Blood samples were collected at the following time points: predose and 0.25, 0.5, 0.75, 1, 1.25, 1.5, 2, 3, 4, 6, 8, 12, 18, and 24 h postdose; plasma samples were obtained by centrifugation of the blood samples. A comprehensive safety and pharmacokinetic analysis was performed for each cohort for the SAD and MAD parts of the study and will be presented elsewhere. A fit‐for‐purpose discovery method was used to analyze 4 subjects from the highest single dosed cohort for the presence of metabolites. Plasma concentrations of metopimazine, metopimazine acid and metopimazine sulfoxide were quantified using LC–MS/MS methods. Venous blood samples (6 ml) for the determination of plasma concentrations of MPZ and metabolites (MPZA and MPZS) were drawn by direct venipuncture or via an intravenous catheter into K2EDTA Vacutainer® tubes. It was important to avoid hemolysis during blood collection. After collection, the blood samples were centrifuged within 60 min, at 3000 rotations per minute for 10 min at 5°C. The resulting plasma was separated into 2 equal aliquots of 1000 µl (aliquots A & B) and transferred to polypropylene tubes, which were labeled, frozen within 120 min of blood collection and stored at –70°C until required for bioanalysis. Immediately prior to bioanalysis, samples were thawed and a 200 µl aliquots were removed and analytes extracted using acetonitrile protein precipitation. The extracted samples were analyzed twice, once for quantification of MPZ and MPZA and again for MPZS quantification as described below. An MRM LC–MS/MS method was developed for MPZ and metopimazine acid (MPZA) in rat, dog, and human plasma. The method was run in reverse phase in positive ion mode. […] D6‐isotopically labeled internal standards were used for each analyte. The following m/z transitions were monitored: metopimazine 446.3 → 141.1 and metopimazine acid 447.2 → 142.1. […] An MRM LC–MS/MS method was developed to look for metopimazine sulfoxide (MPZS) in human plasma. The method was run in reverse phase in positive ion mode. The system was identical to what was described above except that a slightly longer column was used, a Supelco Discovery HS F5 100 × 4.0 mm (3 µm) column (Sigma‐Aldrich). A D6‐isotopically labeled internal standards was used for MPS and the m/z transition monitored was 462.3 → 98.1. A calibration curve was generated for the quantification of MPZS in human plasma. Noncompartmental Pharmacokinetics analysis was performed in Phoenix 64 Winnonlin version 8.1.

The nature of series [2]: Rat PK study, single oral dose of metopimazine. The format is in vivo, Sprague Dawley rats. The settings on record: Sprague Dawley, plasma, 45 mg/kg metopimazine single oral dose, mean (SD). The procedure: The pharmacokinetics of metopimazine (parent) and metopimazine acid (metabolite) were evaluated in male and female Sprague Dawley rats following a single oral dose of 45 mg/kg metopimazine (free base). Three animals per sex in each dose group were sampled at each timepoint after administration (0.25, 0.5, 1, 2, 4, 8, 12, and 24 h). The rats (rattus norvegicus) were obtained from Envigo RMS, Inc. and were 2 months old. Animals were weighed prior to each dose administration for the purpose of dose calculation. Whole venous blood samples of approximately 0.5 ml were collected from a peripheral vein of animals for determination of exposure to metopimazine and metopimazine acid. Three animals per sex were sampled at each timepoint. Samples were collected in tubes containing K2EDTA with protease inhibitor cocktail (Sigma, # P8340, at ratio 1:100) and placed on ice until processed for plasma by centrifugation under refrigeration for at least 10 min at 1912 x g. After centrifugation, supernatant was removed and stored frozen in a −70°C freezer until analyzed by LC–MS/MS.
(§1) An MRM LC–MS/MS method was developed for MPZ and metopimazine acid (MPZA) in rat, dog, and human plasma. The method was run in reverse phase in positive ion mode. […] D6‐isotopically labeled internal standards were used for each analyte. The following m/z transitions were monitored: metopimazine 446.3 → 141.1 and metopimazine acid 447.2 → 142.1.
(§2) Noncompartmental Pharmacokinetics analysis was performed in Phoenix 64 Winnonlin version 8.1.

A short description of series [3]: Dog PK study, single oral dose of metopimazine. The series is classed as in vivo, beagle dogs. Particulars: beagle, plasma; Dog (male), 10 mg/kg metopimazine single oral dose, mean (SD). As for the experimental part: The pharmacokinetics of metopimazine (parent) and metopimazine acid (metabolite) were evaluated in three male, beagle dogs following a single oral dose of 10 mg/kg metopimazine (free base). The dogs were obtained from Marshall BioResources. Animals were weighed prior to each dose administration for the purpose of dose calculation. Metopimazine was administered in size 13 gelatin capsules. Whole venous blood samples of approximately 1.0 ml were collected from a peripheral vein of all animals for determination of metopimazine and metopimazine acid. Samples were collected at the following timepoints: 0.25, 0.5, 1, 2, 4, 8, 12, and 24 h after test article administration. All animals were sampled at each timepoint. Samples were collected in tubes containing K2EDTA and placed on ice until processed for plasma by centrifugation under refrigeration for at least 10 min at 1912 x g. After centrifugation, the supernatant was removed and stored frozen in a −70°C freezer until analyzed by LC–MS/MS.
as §1, §2

Series [4] can be described thus: Incubation of MPZ with pooled human liver microsomes (disappearance, metabolite formation). The format is in vitro ADME. Particulars: for Peak area at time 0 / Peak area at time 90 min: metopimazine incubation in human liver microsomes, full scan LC–MS. As for the experimental part:
To conduct the metabolic incubation in liver microsomes in the linear range, protein concentration and the reaction time were optimized.
PAR was also used for all positive control compounds.
The degree of disappearance of each analyte was evaluated by comparing the PAR of analyte to IS or concentration in different sampling time points to the PAR of time zero, (t = 0, 100%). The percent of parent remaining values were calculated according to the following equation: %parentremaining=(meanconcentrationorPARateachsamplingtimepoint/meanconcentrationorPARoftimezero)×100
On the technique in general: Liver microsomes are a subcellular fraction often used to study metabolism.

The conditions of series [5]: cited from earlier work.
Setting [6] is: plasma, individual subjects, single oral 60 mg MPZ dose.

`CS(=O)(=O)c1ccc2c(c1)N(CCCN1CCC(C(N)=O)CC1)c1ccccc1S2` [MPZ, metopimazine]: the “% Drug‐related material MPZ” value in series [1] (individual subjects) was 6.5% and 9.9% and 6.2% and 6.8%; in series [1] (mean of 4 subjects), 7.4%. The Tmax in series [1] (plasma, plasma, individual subjects, single oral 60 mg MPZ dose, read-out: MPZ T max) was determined as 3 h; in series [1] (plasma, plasma, mean of 4 subjects, single oral 60 mg MPZ dose, read-out: MPZ T max), 1.4 h; in series [2] (Rat (female)) it was 4 h; in series [2] (Rat (male)), 4 h; in series [3] it was 0.83 h. Besides, the AUC(0-t) in series [1] (plasma, plasma, mean of 4 subjects, single oral 60 mg MPZ dose, read-out: MPZ AUClast) came to 0.172 µg·h/mL. Also, the Cmax was 0.0939 µg/mL in series [1] (plasma, plasma, mean of 4 subjects, single oral 60 mg MPZ dose, read-out: MPZ C max); 1.73 µg/mL in series [2] (Rat (female)); 1.08 µg/mL in series [2] (Rat (male)); 0.416 µg/mL in series [3]. Besides, the “MPZ AUClast” value in series [1] (setting [6]) was 111.9 ng‐h/ml and 278.2 ng‐h/ml and 129.4 ng‐h/ml and 167.5 ng‐h/ml. Also, the “MPZ C max” value in series [1] (setting [6]) was 0.0389 µg/mL and 0.203 µg/mL and 0.0756 µg/mL and 0.0582 µg/mL. In addition, in series [1] (setting [6]), the “MPZ T max” value is 0.75 h and 1 h. For the same molecule, the “percent of total circulating drug‐related material” value in series [1] was “less than 10%”. Also, the AUC(0-inf) was determined as 13.9 µg·h/mL in series [2] (Rat (female)), 8.17 µg·h/mL in series [2] (Rat (male)) and 2.6 µg·h/mL in series [3]. The “percent of parent remaining” value in series [4] (1 µM MPZ, HLM 0.5 mg/ml protein, NADPH, 60 min) was 37.2%. Moreover, in series [4], the “Peak area at time 0” value turned out to be 2373. Moreover, the “Peak area at time 90 min” value in series [4] came to 715. Further, the “blood–brain barrier penetration” value in series [5] was “does not penetrate the blood–brain barrier”. Moreover, in series [5] (humans, 10 mg dose of MPZ), the absolute bioavailability result is on record as “under 20%”.
Take `CS(=O)(=O)c1ccc2c(c1)N(CCCN1CCC(C(=O)O)CC1)c1ccccc1S2` [MPZA, metopimazine acid]: the “% Drug‐related material MPZA” value in series [1] (individual subjects) is 93.0% and 89.2% and 93.3% and 92.4%; in series [1] (mean of 4 subjects), 92.0%. In addition, the Tmax in series [1] (plasma, 4 subjects, single oral 60 mg MPZ dose, read-out: Tmax, range over subjects) is 1.25 to 3 h; in series [1] (plasma, plasma, mean of 4 subjects, single oral 60 mg MPZ dose, read-out: MPZA T max), 1.8 h; in series [2] (Rat (female)), 3 h; in series [2] (Rat (male)), 4 h; in series [3], 2 h. Moreover, the AUC(0-t) came out at 1.59 µg·h/mL in series [1] (plasma, plasma, individual subjects, single oral 60 mg MPZ dose, read-out: MPZA AUClast) and 2.08 µg·h/mL in series [1] (plasma, plasma, mean of 4 subjects, single oral 60 mg MPZ dose, read-out: MPZA AUClast). In addition, the Cmax in series [1] (plasma, plasma, mean of 4 subjects, single oral 60 mg MPZ dose, read-out: MPZA C max) amounted to 0.397 µg/mL; in series [2] (Rat (female)), 0.11 µg/mL; in series [2] (Rat (male)) it was 0.089 µg/mL; in series [3], 0.103 µg/mL. Also, the “MPZA AUClast” value in series [1] (setting [6]) was 2506.1 ng‐h/ml and 1941.9 ng‐h/ml and 2265.8 ng‐h/ml. In series [1] (setting [6]), the “MPZA C max” value is 0.241 µg/mL and 0.601 µg/mL and 0.357 µg/mL and 0.39 µg/mL. In addition, the “MPZA T max” value in series [1] (setting [6]) is 3 h and 1.25 h (2×) and 1.5 h. Besides, the “percent of total circulating drug‐related material” value in series [1] is recorded as “approximately 90%”. Also, the total exposure AUC(0-inf) in series [2] (Rat (female)) came to 0.884 µg·h/mL; in series [2] (Rat (male)) it was 0.755 µg·h/mL; in series [3], 0.728 µg·h/mL. Moreover, the “Peak area at time 0” value in series [4] is given as 0. Besides, in series [4], the “Peak area at time 90 min” value was determined as 208. Besides, the “share of circulating drug‐related material in plasma” value in series [5] (clinical doses of 20 and 50 mg MPZ, single dose, preprandially or postprandially) is reported as at least 80%. Moreover, the “share of circulating drug‐related material based on AUC exposure” value in series [5] (humans) was “over 90%”.
